The results in this text go back to PubChem BioAssay (NCI).

Where “and” joins values, the source holds several entries; their conditions need not be identical. Identical values can stand only once.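 Grown in 96-well plates, cells were treated for 48 hours with each compound at five concentrations. Insufficient inhibition: endpoint recorded as highest concentration tested. Abbreviation: GI50, concentration required for 50% inhibition of growth. The concentration for full growth arrest is given as TGI.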

Some test systems named below: HS 578T breast; HT29 colon; NCI-H522 lung; RPMI-8226 leukemia; SF-295 CNS; UACC-257 melanoma; UACC-62 melanoma; NCI-H460 lung.
What all share (test): inhibition of tumour cell growth, NCI panel, 48 h

On to `O=C1C=C(OCC=C(C(F)(F)F)C(F)(F)F)c2ccccc2C1=O`, for which the GI50 is 2060 nM with HS 578T breast; 2400 nM with HT29 colon; 1410 nM in the assay with NCI-H522 lung; 1630 nM in the assay on RPMI-8226 leukemia; 14.6 µM in the assay with SF-295 CNS; 1420 nM in the assay with UACC-257 melanoma. In addition, in the assay on UACC-62 melanoma, the GI50 is 1700 nM. For the same compound, the TGI with HS 578T breast amounted to 7.21 µM; in the assay with HT29 colon it was 5.47 µM; in the assay with NCI-H522 lung, 2.92 µM; in the assay with RPMI-8226 leukemia, 4.29 µM; with SF-295 CNS, 30.3 µM; in the assay with UACC-257 melanoma it was 2.77 µM. In addition, the TGI with UACC-62 melanoma was 4.1 µM.
As to `COc1cc(-c2nc3ccccc3o2)cc(CN2CCCCC2)c1O`, the GI50 is 2370 nM in the assay with HS 578T breast; 2840 nM in the assay with NCI-H460 lung; 3260 nM in the assay with NCI-H522 lung; 2850 nM in the assay with RPMI-8226 leukemia; 1.85 µM with SF-295 CNS; 2060 nM with UACC-257 melanoma. In addition, the GI50 with UACC-62 melanoma is 1630 nM. The TGI with HS 578T breast is 7.44 µM; with NCI-H460 lung, 10.9 µM; with NCI-H522 lung it was 14.2 µM; in the assay with RPMI-8226 leukemia it was > 100 µM; in the assay with SF-295 CNS it was 6.6 µM; in the assay with UACC-257 melanoma, 5.51 µM. In the assay with UACC-62 melanoma, this compound returned a TGI of 3.2 µM.
As for `C=C1C(=O)O[C@H]2[C@H]1CC/C(COC(=O)/C=C\C(=O)NCc1ccc(Cn3c(=O)sn(CCI)c3=O)cc1)=C\CC[C@@]1(C)O[C@@H]21`, the GI50 was 14000 nM in the assay with HS 578T breast; 2260 nM with HT29 colon; 15500 nM in the assay on NCI-H460 lung; 1480 nM in the assay with NCI-H522 lung; 18.9 µM in the assay on SF-295 CNS; 2070 nM in the assay on UACC-257 melanoma. Besides, the GI50 with UACC-62 melanoma is 1830 nM. Besides, the TGI stood at 73.6 µM in the assay with HS 578T breast; 4.92 µM with HT29 colon; 37.9 µM in the assay on NCI-H460 lung; 2.93 µM with NCI-H522 lung; 33.4 µM with SF-295 CNS; 5.97 µM in the assay on UACC-257 melanoma. The same compound showed a TGI in the assay on UACC-62 melanoma of 3.86 µM.
Consider `CCN(CC)c1ccc(-c2cc(-c3cc(OC)c(OC)c(OC)c3)nc(N3CCC(O)CC3)c2C#N)cc1`, for which the GI50 in the assay on HS 578T breast was 3940 nM; in the assay on HT29 colon, 277 nM; with NCI-H460 lung it was 245 nM; with RPMI-8226 leukemia, 232 nM; with SF-295 CNS, 0.169 µM; in the assay with UACC-62 melanoma, 264 nM. For the same compound, the TGI was > 100 µM with HS 578T breast; 1.28 µM with HT29 colon; 1.62 µM with NCI-H460 lung; 4.78 µM with RPMI-8226 leukemia; 0.435 µM in the assay on SF-295 CNS; 0.662 µM in the assay with UACC-62 melanoma.
For `COc1ccc2c(c1)/C(=C\c1c(-c3cc(OC)ccc3OC)nc3sccn13)C(=O)N2`, the GI50 is 1370 nM in the assay on HT29 colon; 4390 nM in the assay with NCI-H460 lung; 3400 nM with RPMI-8226 leukemia; 5.31 µM and 18.2 µM in the assay with SF-295 CNS; 2170 nM in the assay with UACC-257 melanoma; 5420 nM and 12400 nM with UACC-62 melanoma. Further, the TGI in the assay on HT29 colon was 2.66 µM; in the assay with NCI-H460 lung, > 100 µM; with SF-295 CNS, 44.1 µM; in the assay with UACC-257 melanoma, 4.43 µM; in the assay with UACC-62 melanoma, 28.5 µM.
Turning to `CC[C@H](C)[C@H](NC(=O)[C@H]1CCCCN1C)C(=O)N(C)[C@H](C[C@@H](OC(C)=O)c1cccc(C(=O)N[C@@H](Cc2ccccc2)C[C@H](C)C(=O)O)n1)C(C)C`, the GI50 in the assay on HS 578T breast was 2 nM and 2.5 nM; with HT29 colon it was 1.68 nM; with NCI-H460 lung, 2.78 nM and 2.5 nM; in the assay with NCI-H522 lung, 0.5 nM and < 2.5 nM; with RPMI-8226 leukemia, 0.816 nM and 2.5 nM; with SF-295 CNS it was 0.00275 µM and < 0.0025 µM. In the assay on UACC-62 melanoma, the GI50 was 0.38 nM and 2.5 nM. Besides, the TGI is > 25 µM in the assay on HS 578T breast; > 25 µM with NCI-H460 lung; < 0.0025 µM in the assay with NCI-H522 lung; > 25 µM in the assay on RPMI-8226 leukemia; < 0.0025 µM in the assay on SF-295 CNS; > 25 µM in the assay with UACC-62 melanoma.
As for `COCCc1n(Cc2ccc3ccccc3c2)c2ccccc2[n+]1Cc1ccc2ccccc2c1`, the GI50 with HT29 colon is 379 nM; with UACC-257 melanoma it was 456 nM; with UACC-62 melanoma it was 384 nM. For the same compound, the values for the TGI in the assay with HT29 colon, in the assay on UACC-257 melanoma and in the assay with UACC-62 melanoma were 1.51 µM, 1.77 µM and 1.52 µM, respectively.
For the compound `CCN1C(=O)N(CC)C2C1NN=c1s/c(=C3\C(=O)N(C4CCCC4)c4ccccc43)c(=O)n12` (stereo unspecified), the GI50 in the assay on HS 578T breast is 1010 nM; in the assay with HT29 colon it was 695 nM; in the assay with NCI-H460 lung, 906 nM; in the assay on NCI-H522 lung, 573 nM; with RPMI-8226 leukemia, 1910 nM; with SF-295 CNS, 1.6 µM. Further, the GI50 with UACC-62 melanoma was 465 nM. The TGI was 8.77 µM in the assay on HS 578T breast; > 100 µM with HT29 colon; > 100 µM in the assay on NCI-H460 lung; 5.57 µM in the assay on NCI-H522 lung; 7.31 µM in the assay with RPMI-8226 leukemia; 14.4 µM with SF-295 CNS. In the assay with UACC-62 melanoma, this compound yielded a TGI of 36 µM.
With `CN(C)Cc1ccc(NC(=O)c2cncc(C#Cc3cnc(N)c4ncccc34)c2)cc1F`, the GI50 with HS 578T breast was 7850 nM; with NCI-H460 lung, 1930 nM; in the assay on NCI-H522 lung, 17200 nM; in the assay with RPMI-8226 leukemia it was 1970 nM; with SF-295 CNS it was 10.6 µM; with UACC-257 melanoma, 7310 nM. In addition, in the assay on UACC-62 melanoma, the GI50 was 1830 nM. Moreover, the TGI is 27.7 µM in the assay with HS 578T breast; 3.63 µM in the assay on NCI-H460 lung; 53.9 µM in the assay on NCI-H522 lung; 4.75 µM in the assay with RPMI-8226 leukemia; 26.5 µM with SF-295 CNS; 26.7 µM in the assay with UACC-257 melanoma. In addition, the TGI in the assay on UACC-62 melanoma stood at 3.53 µM.
`O=C1Nc2ccccc2/C1=C\c1nc(-c2ccccc2F)n2ccccc12`: the GI50 in the assay with HT29 colon was 3500 nM; with NCI-H460 lung, 2170 nM; in the assay on NCI-H522 lung it was 2180 nM; in the assay on RPMI-8226 leukemia it was 51400 nM; in the assay with SF-295 CNS, 3.68 µM; in the assay on UACC-257 melanoma, 5200 nM. In the assay on UACC-62 melanoma, the GI50 was 6320 nM. The TGI in the assay with HT29 colon is 12.1 µM; in the assay on NCI-H460 lung, 5.14 µM; with NCI-H522 lung, 7.37 µM; with RPMI-8226 leukemia, > 100 µM; in the assay with SF-295 CNS, 13.7 µM; in the assay with UACC-257 melanoma, 18.1 µM. Further, in the assay on UACC-62 melanoma, the TGI worked out at 25.2 µM.
